# Substitutions are numbered along the chain they refer to. Where a SMILES comes first, the peptide text is derived from it. [ ]: non-standard residue; d: D form. Nle = CCCC[C@H](N)C(=O)O
# Key:
# human PTHR1-H223R = molecular target: T1, human PTHR1-H223R (Homo sapiens, UniProt Q03431, H223R); experiment: Inverse agonism on basal cAMP signaling in GHR-10 cells; assay type: cell-based; conditions: for inverse agonist properties on constitutively active PTHR1-H223R (basal cAMP): GHR-10 cells (HEK293/GloSensor); for Reduction of basal cAMP, % vehicle, After ligand washout / Reduction of basal cAMP, % vehicle, Ligand @ −6M: GHR-10 cells, from AUC, representative experiment; for Reduction of basal cAMP, % vehicle, After ligand washout: 26 minutes after washout of unbound ligand; for Reduction of basal cAMP, % vehicle, Ligand @ −6M: peptide 1×10^−6 M for 24 minutes
# T1 construct: expressed in transfected cells; host or cells: GHR-10 (HEK-293 stably expressing GloSensor and PTHR1-H223R)
# T1 sequence (Q03431 27-593 H223R): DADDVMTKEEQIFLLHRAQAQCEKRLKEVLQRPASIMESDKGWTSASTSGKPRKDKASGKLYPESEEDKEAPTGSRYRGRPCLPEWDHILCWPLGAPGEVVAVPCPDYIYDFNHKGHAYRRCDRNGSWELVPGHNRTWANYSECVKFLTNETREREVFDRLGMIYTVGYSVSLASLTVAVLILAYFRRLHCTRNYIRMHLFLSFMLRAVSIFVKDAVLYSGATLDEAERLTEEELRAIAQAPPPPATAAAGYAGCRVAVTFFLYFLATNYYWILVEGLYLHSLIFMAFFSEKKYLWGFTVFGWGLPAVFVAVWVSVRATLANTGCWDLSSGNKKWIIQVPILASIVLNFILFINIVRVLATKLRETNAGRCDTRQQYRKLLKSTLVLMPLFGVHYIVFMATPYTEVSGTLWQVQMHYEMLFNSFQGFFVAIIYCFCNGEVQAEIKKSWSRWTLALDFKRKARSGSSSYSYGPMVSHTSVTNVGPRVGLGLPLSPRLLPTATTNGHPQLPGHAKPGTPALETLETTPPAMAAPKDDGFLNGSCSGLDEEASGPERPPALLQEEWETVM
# Protocol: (§1) cAMP signaling was assessed in the HEK293-derived or SaOS2-derived cell lines stably expressing the luciferase-based GloSensor™ cAMP reporter (Hattersley et al., Paper presented at: Novel Signaling Mechanisms and Bone Cell Biology 2014; Binkowski et al., Methods in molecular biology. 756:263-271). HEK-293 cells were further transfected to stably express the hPTHR1, hPTHR1-H223R, or hPTHR1-T410P. The cells were seeded into 96-well white plates and were assayed 24 to 48 hours post-confluency. Assays were performed at room temperature in CO2-independent culture media (Life Technologies, Corp., Carlsbad, Calif.) containing 0.1% BSA (CIDB). The cells were pre-loaded with luciferin (0.5 mM in CIDB) for 15 minutes, then PTH peptides were added at varying concentrations. cAMP-dependent luminescence was measured at two-minute intervals using a PerkinElmer Envision plate reader. The time at which maximum luminescence (cps) observed with agonist alone, typically at 10-20 minutes after agonist addition, was used to obtain data from wells containing antagonist with or without agonist, to thus generate antagonist ligand dose-response curves. The resulting cps values were then plotted against ligand concentration using GraphPad Prism 7.0 software and a four-parameter logistics curve fitting equation, which yielded parameters of inhibitory potency (pIC50).
# (§2) These experiments were performed in HEK-293 cells stably transfected to express the GloSensor™ cAMP reporter along with a constitutively active mutant human PTHR1. The HEK-293 cells stably expressing GloSensor™ cAMP reporter along with a constitutively active mutant human PTHR1-H223R are GHR-10 cells. The HEK-293 cells stably expressing GloSensor™ cAMP reporter along with a constitutively active mutant human PTHR1-T410P are GTP-4 cells. The HEK-293 cells stably expressing GloSensor™ cAMP reporter along with a WT-PTHR1 are GP-2.3 cells. GP-2.3 cells were used as control. […] Effects on basal cAMP signaling over time were assessed during periods of direct ligand addition (FIGS. 15A-15F). The measurements were performed by recording GloSensor™ luminescence as counts per second (cps) using a PerkinElmer Envision plate reader. The data are illustrated in FIGS. 15A-15F. Data are from triplicate wells (means±SEM) of a single experiment representative of two others.
# Persistence of the antagonist/inverse agonist effects (prolonged action) as follows. Effects of eight peptides on basal and PTH(1-34)-stimulated cAMP signaling by PTHR-H223R were assessed in GHR-10 cells (HEK-293-derived cells stably expressing glosensor cAMP reporter and PTHR1-H223R). Time courses of changes in cAMP levels were recorded in three consecutive phases:
# 1) after initial addition of a candidate antagonist/inverse agonist (1×10^−6 M-1×10^−9 M) to cells pre-loaded for […] with luciferin (left column);
# 2) after removal of unbound inverse agonist by extensive wash-out with buffer and replenishment with fresh luciferin-containing buffer (middle column); and
# Control wells were treated with vehicle. GloSensor™ luminescence, as counts per second (cps), was recorded using a PerkinElmer Envision plate reader. Data are from duplicate wells (means±SEM) of a single experiment representative of two others. The results are illustrated in Table 7 and in FIGS. 16A-16C, 17A-17C, 18A-18C, 19A-19C, 20A-20C, 21A-21C, 22A-22C, and 23A-23C.
# GHR10 cells were treated with vehicle or vehicle containing the indicated peptide for 24 minutes and cAMP-dependent luminescence was recorded at two-minute intervals. The cells were then washed to remove unbound ligand and media containing fresh luciferin was added, and cAMP luminescence was recorded for another 26 minutes. Percentage reduction was calculated from the area-under-the-curve (AUC) values derived from the time course plots using the equation: […]
# human PTHR1-T410P = molecular target: T2, human PTHR1-T410P (Homo sapiens, UniProt Q03431, T410P); experiment: Inverse agonism on basal cAMP signaling in GTP-4 cells; assay type: cell-based; conditions: GTP-4 cells (HEK293/GloSensor)
# T2 construct: expressed in transfected cells; host or cells: GTP-4 (HEK-293 stably expressing GloSensor and PTHR1-T410P)
# T2 sequence (Q03431 27-593 T410P): T1 sequence (Q03431 27-593 H223R) with R197H, T384P
# Protocol: as §1
# as §2, with “cells.” for “cells. The HEK-293 cells stably expressing GloSensor™ cAMP reporter along with a WT-PTHR1 are GP-2.3 cells. GP-2.3 cells were used as control.”, “The data are illustrated in FIGS. 15A-15F. Data are from triplicate wells (means±SEM) of a single experiment representative of two others.” left out
inverse agonist properties on constitutively active PTHR1-H223R (basal cAMP) (human PTHR1-H223R),"Reduction of basal cAMP, % vehicle, After ligand washout (human PTHR1-H223R) [% vehicle]","Reduction of basal cAMP, % vehicle, Ligand @ −6M (human PTHR1-H223R) [% vehicle]",inverse agonist properties on constitutively active PTHR1-T410P (basal cAMP) (human PTHR1-T410P),Structure (SMILES)
exhibited inverse agonist properties,30,41,exhibited inverse agonist properties,"CC[C@H](C)[C@H](N)C(=O)N[C@@H](CCC(N)=O)C(=O)N[C@@H](CC(C)C)C(=O)N[C@@H](CCSC)C(=O)N[C@@H](Cc1c[nH]cn1)C(=O)N[C@@H](CCC(N)=O)C(=O)N[C@@H](CCCNC(=N)N)C(=O)N[C@H](Cc1c[nH]c2ccccc12)C(=O)N[C@@H](CCCCN)C(=O)N[C@@H](Cc1c[nH]c2ccccc12)C(=O)N[C@H](C(=O)N[C@@H](CCC(N)=O)C(=O)N[C@@H](CC(=O)O)C(=O)N[C@@H](C)C(=O)N[C@@H](CCCNC(=N)N)C(=O)N[C@@H](CCCNC(=N)N)C(=O)N[C@@H](CCCNC(=N)N)C(=O)N[C@@H](C)C(=O)N[C@@H](Cc1c[nH]c2ccccc12)C(=O)N[C@@H](CC(C)C)C(=O)N[C@@H](Cc1c[nH]cn1)C(=O)N[C@@H](CCCCN)C(=O)N[C@@H](CC(C)C)C(=O)N[C@H](C(=O)N[C@@H](C)C(=O)N[C@@H](CCC(=O)O)C(=O)N[C@H](C(=O)N[C@@H](Cc1c[nH]cn1)C(=O)N[C@H](C(=O)N[C@@H](C)C(=O)N[C@@H](CCC(=O)O)C(=O)N[C@H](C(N)=O)[C@@H](C)CC)[C@@H](C)O)[C@@H](C)CC)[C@@H](C)CC)[C@@H](C)CC [compound 1949, dW12, W23-LA-PTH(5-36)] (H-IQLMHQR[dW]KWIQDARRRAWLHKLIAEIHTAEI-NH2; N-terminus assumed)"
inverse agonist response,39,50,inverse agonist response,"CC[C@H](C)[C@H](NC(=O)[C@H](CCC(=O)O)NC(=O)[C@H](C)NC(=O)[C@@H](NC(=O)[C@H](Cc1c[nH]cn1)NC(=O)[C@@H](NC(=O)[C@H](CCC(=O)O)NC(=O)[C@H](C)NC(=O)[C@@H](NC(=O)[C@H](CC(C)C)NC(=O)[C@H](CCCCN)NC(=O)[C@H](Cc1c[nH]cn1)NC(=O)[C@H](CC(C)C)NC(=O)[C@H](Cc1c[nH]c2ccccc12)NC(=O)[C@H](C)NC(=O)[C@H](CCCNC(=N)N)NC(=O)[C@H](CCCNC(=N)N)NC(=O)[C@H](CCCNC(=N)N)NC(=O)[C@H](C)NC(=O)[C@H](CC(=O)O)NC(=O)[C@H](CCC(N)=O)NC(=O)[C@@H](NC(=O)[C@H](Cc1c[nH]c2ccccc12)NC(=O)[C@H](CCCCN)NC(=O)[C@@H](Cc1c[nH]c2ccccc12)NC(=O)[C@H](CCCNC(=N)N)NC(=O)[C@H](CCC(N)=O)NC(=O)[C@H](Cc1c[nH]cn1)NC(=O)[C@H](CCSC)NC(=O)[C@@H](N)CC(C)C)[C@@H](C)CC)[C@@H](C)CC)[C@@H](C)CC)[C@@H](C)O)C(N)=O [compound 1990, dW12, W23-LA-PTH(7-36)-1990] (H-LMHQR[dW]KWIQDARRRAWLHKLIAEIHTAEI-NH2; N-terminus assumed)"
inverse agonist response,40,51,inverse agonist response,"CCCC[C@H](NC(=O)[C@@H](N)CC(C)C)C(=O)N[C@@H](Cc1c[nH]cn1)C(=O)N[C@@H](CCC(N)=O)C(=O)N[C@@H](CCCNC(=N)N)C(=O)N[C@H](Cc1c[nH]c2ccccc12)C(=O)N[C@@H](CCCCN)C(=O)N[C@@H](Cc1c[nH]c2ccccc12)C(=O)N[C@H](C(=O)N[C@@H](CCC(N)=O)C(=O)N[C@@H](CC(=O)O)C(=O)N[C@@H](C)C(=O)N[C@@H](CCCNC(=N)N)C(=O)N[C@@H](CCCNC(=N)N)C(=O)N[C@@H](CCCNC(=N)N)C(=O)N[C@@H](C)C(=O)N[C@@H](Cc1c[nH]c2ccccc12)C(=O)N[C@@H](CC(C)C)C(=O)N[C@@H](Cc1c[nH]cn1)C(=O)N[C@@H](CCCCN)C(=O)N[C@@H](CC(C)C)C(=O)N[C@H](C(=O)N[C@@H](C)C(=O)N[C@@H](CCC(=O)O)C(=O)N[C@H](C(=O)N[C@@H](Cc1c[nH]cn1)C(=O)N[C@H](C(=O)N[C@@H](C)C(=O)N[C@@H](CCC(=O)O)C(=O)N[C@H](C(N)=O)[C@@H](C)CC)[C@@H](C)O)[C@@H](C)CC)[C@@H](C)CC)[C@@H](C)CC [compound 1992, Nle8, dW12, W23-LA-PTH(7-36)-1992] (H-L[Nle]HQR[dW]KWIQDARRRAWLHKLIAEIHTAEI-NH2; N-terminus assumed)"

# Source: patent US20190119348A1, “PARATHYROID HORMONE RECEPTOR 1 ANTAGONIST AND INVERSE AGONIST POLYPEPTIDES AND METHODS OF THEIR USE” (The General Hospital Corporation, priority 2016, published 2019)
